Here are results for 1 compound from publication PMC5218480 (PLoS ONE, 2017).

This assay relates to MV-4-11 cells. Put plainly: Gene expression microarray analysis (Affymetrix PrimeView) and GSEA. More on the design: RFU PODN (11730768_x_at) / Fold change /veh PODN (11730768_x_at) / RFU LINC00158 (11744669_a_at) / Fold change /veh LINC00158 (11744669_a_at) / RFU DUSP10 (11751237_a_at) / Fold change /veh DUSP10 (11751237_a_at) / RFU ID3 (11757404_x_at) / Fold change /veh ID3 (11757404_x_at) / RFU PLEKHG5 (11737974_s_at) / Fold change /veh PLEKHG5 (11737974_s_at) / RFU LRRC4B (11730491_at) / Fold change /veh LRRC4B (11730491_at) / RFU GIMAP4 (11747438_a_at) / Fold change /veh GIMAP4 (11747438_a_at) / RFU KRT8 (11758183_x_at) / Fold change /veh KRT8 (11758183_x_at) / RFU CNN1 (11734310_a_at) / Fold change /veh CNN1 (11734310_a_at) / RFU VPS37D (11726825_at) / Fold change /veh VPS37D (11726825_at) / RFU C10orf10 (11716522_x_at) / Fold change /veh C10orf10 (11716522_x_at) / RFU KIR2DL2 /// KIR2DL4 /// KIR2DL5A /// KIR2DL5B /// KIR2DS1 /// KIR2DS2 /// KIR2DS3 /// KIR2DS4 /// KIR3DL3 /// KIR3DL3 /// KIR3DS1 (11738374_at) / Fold change /veh KIR2DL2 /// KIR2DL4 /// KIR2DL5A /// KIR2DL5B /// KIR2DS1 /// KIR2DS2 /// KIR2DS3 /// KIR2DS4 /// KIR3DL3 /// KIR3DL3 /// KIR3DS1 (11738374_at) / RFU C1QL1 (11718748_at) / Fold change /veh C1QL1 (11718748_at) / RFU TMPRSS4 (11747572_a_at) / Fold change /veh TMPRSS4 (11747572_a_at) / RFU HAMP (11756126_x_at) / Fold change /veh HAMP (11756126_x_at) / RFU RNFT2 (11725882_a_at) / Fold change /veh RNFT2 (11725882_a_at) / RFU NR4A2 (11747474_a_at) / Fold change /veh NR4A2 (11747474_a_at) / RFU ABCC12 (11746883_a_at) / Fold change /veh ABCC12 (11746883_a_at) / RFU TMEM136 (11760407_x_at) / Fold change /veh TMEM136 (11760407_x_at) / RFU CLDN22 /// WWC2 (11732394_at) / Fold change /veh CLDN22 /// WWC2 (11732394_at) / RFU HLA-DPB1 (11760878_x_at) / Fold change /veh HLA-DPB1 (11760878_x_at) / RFU SPINT1 (11716480_a_at) / Fold change /veh SPINT1 (11716480_a_at) / RFU GAP43 (11754022_s_at) / Fold change /veh GAP43 (11754022_s_at) / RFU A4GNT (11735810_at) / Fold change /veh A4GNT (11735810_at) / RFU PRB3 (11715151_x_at) / Fold change /veh PRB3 (11715151_x_at) / RFU TUBB4B (11761932_at) / Fold change /veh TUBB4B (11761932_at) / RFU CAPN14 (11732068_a_at) / Fold change /veh CAPN14 (11732068_a_at) / RFU TMCC2 (11721928_a_at) / Fold change /veh TMCC2 (11721928_a_at) / RFU IRGQ (11745062_a_at) / Fold change /veh IRGQ (11745062_a_at) / RFU FAM174B (11720279_a_at) / Fold change /veh FAM174B (11720279_a_at) / RFU TMPRSS4 (11748680_a_at) / Fold change /veh TMPRSS4 (11748680_a_at) / RFU FAM212B (11763350_a_at) / Fold change /veh FAM212B (11763350_a_at) / RFU PLEKHG5 (11743358_a_at) / Fold change /veh PLEKHG5 (11743358_a_at) / RFU ZSCAN30 (11745921_a_at) / Fold change /veh ZSCAN30 (11745921_a_at) / RFU CMKLR1 (11741424_a_at) / Fold change /veh CMKLR1 (11741424_a_at) / RFU LOC101060620 /// MAPK8IP1 (11723275_at) / Fold change /veh LOC101060620 /// MAPK8IP1 (11723275_at) / RFU SPTSSB (11747773_x_at) / Fold change /veh SPTSSB (11747773_x_at) / RFU PRSS12 (11739890_at) / Fold change /veh PRSS12 (11739890_at) / RFU BIN1 (11741810_x_at) / Fold change /veh BIN1 (11741810_x_at) / RFU WNT11 (11732464_a_at) / Fold change /veh WNT11 (11732464_a_at) / RFU C10orf10 (11716521_a_at) / Fold change /veh C10orf10 (11716521_a_at) / RFU C5orf56 (11738089_at) / Fold change /veh C5orf56 (11738089_at) / RFU CYB561 (11721691_x_at) / Fold change /veh CYB561 (11721691_x_at) / RFU ANKRD19P (11752326_a_at) / Fold change /veh ANKRD19P (11752326_a_at) / RFU OR2T12 /// OR2T33 /// OR2T8 (11738714_s_at) / Fold change /veh OR2T12 /// OR2T33 /// OR2T8 (11738714_s_at) / RFU VCAN (11748164_a_at) / Fold change /veh VCAN (11748164_a_at) / RFU JSRP1 (11732532_at) / Fold change /veh JSRP1 (11732532_at) / RFU KRTAP10-11 (11738290_x_at) / Fold change /veh KRTAP10-11 (11738290_x_at) / RFU MYO3A (11730013_a_at) / Fold change /veh MYO3A (11730013_a_at) / RFU EBF3 (11725865_a_at) / Fold change /veh EBF3 (11725865_a_at) / RFU CAMK2N1 (11719241_x_at) / Fold change /veh CAMK2N1 (11719241_x_at) / RFU C5orf56 (11738088_a_at) / Fold change /veh C5orf56 (11738088_a_at) / RFU OLFML3 (11715873_a_at) / Fold change /veh OLFML3 (11715873_a_at) / RFU LOC100653217 /// NTM (11731650_a_at) / Fold change /veh LOC100653217 /// NTM (11731650_a_at) / RFU MAPK11 (11762145_a_at) / Fold change /veh MAPK11 (11762145_a_at) / RFU FIZ1 (11724087_x_at) / Fold change /veh FIZ1 (11724087_x_at) / RFU OASL (11726364_x_at) / Fold change /veh OASL (11726364_x_at) / RFU SOX15 (11748057_x_at) / Fold change /veh SOX15 (11748057_x_at) / RFU CD79A (11719716_a_at) / Fold change /veh CD79A (11719716_a_at) / RFU HIST1H1D (11736915_at) / Fold change /veh HIST1H1D (11736915_at) / RFU CASKIN2 (11723855_a_at) / Fold change /veh CASKIN2 (11723855_a_at) / RFU LOC730098 (11760151_x_at) / Fold change /veh LOC730098 (11760151_x_at) / RFU OR4N2 (11742367_at) / Fold change /veh OR4N2 (11742367_at) / RFU PRRT2 (11749266_a_at) / Fold change /veh PRRT2 (11749266_a_at) / RFU SNX32 (11753110_a_at) / Fold change /veh SNX32 (11753110_a_at) / RFU CDHR5 (11726645_a_at) / Fold change /veh CDHR5 (11726645_a_at) / RFU RCAN1 (11760418_a_at) / Fold change /veh RCAN1 (11760418_a_at) / RFU FAM167A (11723789_a_at) / Fold change /veh FAM167A (11723789_a_at) / RFU FAM26E (11764081_at) / Fold change /veh FAM26E (11764081_at) / RFU ISYNA1 (11749810_s_at) / Fold change /veh ISYNA1 (11749810_s_at) / RFU ACY1 (11761880_at) / Fold change /veh ACY1 (11761880_at) / RFU 11764098_at / Fold change /veh 11764098_at / RFU SAMD14 (11745864_x_at) / Fold change /veh SAMD14 (11745864_x_at) / RFU NPB (11741838_a_at) / Fold change /veh NPB (11741838_a_at) / RFU TMPRSS6 (11731388_a_at) / Fold change /veh TMPRSS6 (11731388_a_at) / RFU KRTAP10-2 (11738614_at) / Fold change /veh KRTAP10-2 (11738614_at) / RFU ARHGAP8 /// PRR5-ARHGAP8 (11727945_x_at) / Fold change /veh ARHGAP8 /// PRR5-ARHGAP8 (11727945_x_at) / RFU KRTAP5-7 /// NADSYN1 (11734609_at) / Fold change /veh KRTAP5-7 /// NADSYN1 (11734609_at) / RFU RASL12 (11751679_a_at) / Fold change /veh RASL12 (11751679_a_at) / RFU CDKN2B (11736163_a_at) / Fold change /veh CDKN2B (11736163_a_at) / RFU PRF1 (11729649_at) / Fold change /veh PRF1 (11729649_at) / RFU, ZNF638 /// ZNF638-IT1 / Fold change vs veh, ZNF638 /// ZNF638-IT1 / RFU, PANK3 / Fold change vs veh, PANK3 / RFU, SH3YL1 / Fold change vs veh, SH3YL1 / RFU, ZEB2 / Fold change vs veh, ZEB2 / RFU, NRIP1 / Fold change vs veh, NRIP1 / RFU, PTTG1IP / Fold change vs veh, PTTG1IP / RFU, CAPN2 / Fold change vs veh, CAPN2 / RFU, MED14 / Fold change vs veh, MED14 / RFU, SNORA58 / Fold change vs veh, SNORA58 / RFU, C1orf63 / Fold change vs veh, C1orf63 / RFU, LRRFIP1 / Fold change vs veh, LRRFIP1 / RFU, NDUFAF7 / Fold change vs veh, NDUFAF7 / RFU, SLC12A2 / Fold change vs veh, SLC12A2 / RFU, IBTK / Fold change vs veh, IBTK / RFU, ESF1 / Fold change vs veh, ESF1 / Fold change vs veh, TMEM50B / RFU, TAOK1 / Fold change vs veh, TAOK1 / RFU, ACBD3 / Fold change vs veh, ACBD3 / RFU, TMA16 / Fold change vs veh, TMA16 / RFU, RWDD3 / Fold change vs veh, RWDD3 / RFU, BCAT1 / Fold change vs veh, BCAT1 / RFU, EDEM3 / Fold change vs veh, EDEM3 / RFU, TMEM33 / Fold change vs veh, TMEM33 / RFU, WDR75 / Fold change vs veh, WDR75 / RFU, AHCTF1 / Fold change vs veh, AHCTF1 / RFU, TFRC / Fold change vs veh, TFRC / RFU, ZDHHC17 / Fold change vs veh, ZDHHC17 / RFU, NOM1 / Fold change vs veh, NOM1 / RFU, ARL8B / Fold change vs veh, ARL8B / RFU, ZBTB11 / Fold change vs veh, ZBTB11 / RFU, TAMM41 / Fold change vs veh, TAMM41 / RFU, KIAA1704 /// LOC100996395 / Fold change vs veh, KIAA1704 /// LOC100996395 / RFU, ING1 / Fold change vs veh, ING1 / RFU, TRMT61B / Fold change vs veh, TRMT61B / RFU, FUBP3 / Fold change vs veh, FUBP3 / RFU, TP53 / Fold change vs veh, TP53 / RFU, TNKS2 / Fold change vs veh, TNKS2 / RFU, ZFP14 / Fold change vs veh, ZFP14 / RFU, ACTR2 / Fold change vs veh, ACTR2 / RFU, PPP3R1 / Fold change vs veh, PPP3R1 / RFU, PIK3R1 / Fold change vs veh, PIK3R1 / RFU, HNRNPA1 / Fold change vs veh, HNRNPA1 / RFU, RNF170 / Fold change vs veh, RNF170 / RFU, ZNF28 / Fold change vs veh, ZNF28 / RFU, RNGTT / Fold change vs veh, RNGTT / RFU, OGT / Fold change vs veh, OGT / RFU, BRD1 / Fold change vs veh, BRD1 / RFU, MARS / Fold change vs veh, MARS / RFU, ZNF655 / Fold change vs veh, ZNF655 / RFU, FAHD1 / Fold change vs veh, FAHD1 / RFU, BDP1 / Fold change vs veh, BDP1 / RFU, LRRCC1 / Fold change vs veh, LRRCC1 / RFU, ARID1A / Fold change vs veh, ARID1A / RFU, ZNF146 / Fold change vs veh, ZNF146 / RFU, ZNF330 / Fold change vs veh, ZNF330 / RFU, GPN3 / Fold change vs veh, GPN3 / RFU, C9orf123 / Fold change vs veh, C9orf123 / RFU, N4BP2L2 / Fold change vs veh, N4BP2L2 / RFU, ARFIP1 / Fold change vs veh, ARFIP1 / RFU, FAM179B / Fold change vs veh, FAM179B / RFU, BCL10 / Fold change vs veh, BCL10 / RFU, UHRF1BP1L / Fold change vs veh, UHRF1BP1L / RFU, BET1 / Fold change vs veh, BET1 / RFU, CNOT2 / Fold change vs veh, CNOT2 / RFU, ZNF268 / Fold change vs veh, ZNF268 / Fold change vs veh, ZNF507 / RFU, DGCR2 / Fold change vs veh, DGCR2 / RFU, WDSUB1 / Fold change vs veh, WDSUB1 / Fold change vs veh, HSP90B1 /// MIR3652 / RFU, ADSS / Fold change vs veh, ADSS / RFU, GK / Fold change vs veh, GK / RFU, ZNF148 / Fold change vs veh, ZNF148 / RFU, TAF9 / Fold change vs veh, TAF9 / RFU, SLC1A5 / Fold change vs veh, SLC1A5 / RFU, SLMO2 / Fold change vs veh, SLMO2 / RFU, ABCC4 / Fold change vs veh, ABCC4 / RFU, LOC101060439 /// RAP1B / Fold change vs veh, LOC101060439 /// RAP1B / RFU, RFX7 / Fold change vs veh, RFX7 / RFU, GTPBP10 / Fold change vs veh, GTPBP10 / RFU, CNEP1R1 / Fold change vs veh, CNEP1R1 / RFU, BIVM-ERCC5 /// ERCC5 / Fold change vs veh, BIVM-ERCC5 /// ERCC5 / RFU, ILF3 / Fold change vs veh, ILF3 / RFU 11762660_at / Fold change /veh 11762660_at / RFU VCAN (11757783_s_at) / Fold change /veh VCAN (11757783_s_at) / RFU DDX43 (11728927_at) / Fold change /veh DDX43 (11728927_at) / RFU KRT8 (11758188_x_at) / Fold change /veh KRT8 (11758188_x_at) / RFU NKD1 (11759106_at) / Fold change /veh NKD1 (11759106_at) / RFU SRD5A1 (11742802_a_at) / Fold change /veh SRD5A1 (11742802_a_at) / RFU TPSAB1 /// TPSB2 (11721975_s_at) / Fold change /veh TPSAB1 /// TPSB2 (11721975_s_at) / RFU GSTM3 (11746129_a_at) / Fold change /veh GSTM3 (11746129_a_at) / RFU IL23R (11737362_x_at) / Fold change /veh IL23R (11737362_x_at) / RFU TMEM51 (11727254_a_at) / Fold change /veh TMEM51 (11727254_a_at) / RFU PIWIL2 (11732686_x_at) / Fold change /veh PIWIL2 (11732686_x_at) / RFU ORM1 (11744905_x_at) / Fold change /veh ORM1 (11744905_x_at) / RFU CCDC152 (11743942_at) / Fold change /veh CCDC152 (11743942_at) / RFU ECM1 (11717891_a_at) / Fold change /veh ECM1 (11717891_a_at) / RFU IL23R (11748794_a_at) / Fold change /veh IL23R (11748794_a_at) / RFU TNFAIP8L3 (11732012_x_at) / Fold change /veh TNFAIP8L3 (11732012_x_at) / RFU MBOAT4 (11741988_at) / Fold change /veh MBOAT4 (11741988_at) / RFU 11764193_at / Fold change /veh 11764193_at / RFU TMEM53 (11763286_at) / Fold change /veh TMEM53 (11763286_at) / RFU MAGEB2 (11727129_at) / Fold change /veh MAGEB2 (11727129_at) / RFU TMEM200A (11744735_a_at) / Fold change /veh TMEM200A (11744735_a_at) / RFU CCDC152 (11751479_a_at) / Fold change /veh CCDC152 (11751479_a_at) / RFU FAM211A (11726209_a_at) / Fold change /veh FAM211A (11726209_a_at) / RFU RGS16 (11746705_a_at) / Fold change /veh RGS16 (11746705_a_at) / RFU VCAN (11755009_s_at) / Fold change /veh VCAN (11755009_s_at) / RFU RHOB (11743442_s_at) / Fold change /veh RHOB (11743442_s_at) / RFU RGS16 (11720943_a_at) / Fold change /veh RGS16 (11720943_a_at) / RFU RGS16 (11720944_at) / Fold change /veh RGS16 (11720944_at) / RFU, VPS4B / Fold change vs veh, VPS4B / RFU, CREB1 / Fold change vs veh, CREB1 / RFU, DNAJC13 / Fold change vs veh, DNAJC13 / RFU, GNAQ / Fold change vs veh, GNAQ / RFU, CDK5R1 / Fold change vs veh, CDK5R1 / RFU, ZRANB3 / Fold change vs veh, ZRANB3 / RFU, CUL4A / Fold change vs veh, CUL4A / RFU, CCNY / Fold change vs veh, CCNY / RFU, UFL1 / Fold change vs veh, UFL1 / RFU, COG3 / Fold change vs veh, COG3 / RFU, DIAPH2 / Fold change vs veh, DIAPH2 / RFU, SKA2 / Fold change vs veh, SKA2 / RFU, AFF3 / Fold change vs veh, AFF3 / RFU, LMF1 / Fold change vs veh, LMF1 / RFU, IPO11 / Fold change vs veh, IPO11 / RFU, DFFB / Fold change vs veh, DFFB / RFU, FOXP1 / Fold change vs veh, FOXP1 / RFU, CARD8 / Fold change vs veh, CARD8 / RFU, STRN3 / Fold change vs veh, STRN3 / RFU, ADK / Fold change vs veh, ADK / RFU, RASSF2 / Fold change vs veh, RASSF2 / RFU, WIPF1 / Fold change vs veh, WIPF1 / RFU, LARP1B / Fold change vs veh, LARP1B / RFU, RASA1 / Fold change vs veh, RASA1 / RFU, RB1 / Fold change vs veh, RB1 / RFU, PPFIA1 / Fold change vs veh, PPFIA1 / RFU, MAT2A / Fold change vs veh, MAT2A / RFU, CCT5 / Fold change vs veh, CCT5 / RFU, WDR92 / Fold change vs veh, WDR92 / RFU, CUX1 / Fold change vs veh, CUX1 / RFU, TTC7A / Fold change vs veh, TTC7A / RFU, TMEM135 / Fold change vs veh, TMEM135 / RFU, DEPTOR / Fold change vs veh, DEPTOR / RFU, CPM / Fold change vs veh, CPM / RFU, DNAJB6 / Fold change vs veh, DNAJB6 / RFU, CACNA2D3 / Fold change vs veh, CACNA2D3 / RFU, DTX4 / Fold change vs veh, DTX4 / RFU, TFCP2 / Fold change vs veh, TFCP2 / RFU, GMCL1 /// GMCL1P1 / Fold change vs veh, GMCL1 /// GMCL1P1 / RFU, AEBP2 / Fold change vs veh, AEBP2 / RFU, SNHG1 /// SNORD22 /// SNORD25 /// SNORD26 /// SNORD27 /// SNORD28 /// SNORD29 /// SNORD31 / Fold change vs veh, SNHG1 /// SNORD22 /// SNORD25 /// SNORD26 /// SNORD27 /// SNORD28 /// SNORD29 /// SNORD31 / Fold change (Aza/veh), C12orf56 (ProbeSet 11735607_a_at) / Fold change (ACY-1035/veh), C12orf56 (ProbeSet 11735607_a_at) / Fold change (Aza/veh), FGFR1OP (ProbeSet 11751329_s_at) / Fold change (ACY-1035/veh), FGFR1OP (ProbeSet 11751329_s_at) / Fold change (Aza/veh), VPS36 (ProbeSet 11739960_a_at) / Fold change (ACY-1035/veh), VPS36 (ProbeSet 11739960_a_at) / RFU SYPL1 (11715823_x_at) / Fold change /veh SYPL1 (11715823_x_at) / RFU IGFBP7 (11715501_s_at) / Fold change /veh IGFBP7 (11715501_s_at) / RFU REEP3 (11722064_at) / Fold change /veh REEP3 (11722064_at) / RFU IGLL1 (11728026_x_at) / Fold change /veh IGLL1 (11728026_x_at): dose or concentration left out as unconfirmed. To be noted: MV-4-11 cells, 48 hours. It counts as cell-based, human.

In the case of `Nc1ccc(-c2cccs2)cc1NC(=O)c1ccc2c(c1)cc(C1CC1)n2CCN1CCOCC1` [ACY-1035], the “Fold change /veh C5orf56 (11738088_a_at)” value was 0.99.
